According to ChEMBL document CHEMBL1139700 (Bioorg Med Chem Lett, 2006):
pKi: −log10 of the molar value.

Assays:
[1] = biological target: Neuronal acetylcholine receptor; alpha4/beta2 (Rattus norvegicus, UniProt P09483+P12390); assay: Displacement of [3H]epibatidine from alpha-4-beta-2 nAChR in rat brain cortex membrane; type: cell membranes
[2] = biological target: Neuronal acetylcholine receptor subunit alpha-7 (Rattus norvegicus, UniProt Q05941); assay: Displacement of [3H]alpha-Bungarotoxin from alpha-7 nAChR in rat brain cortex membranes; type: cell membranes, Membrane
Sequence of Neuronal acetylcholine receptor subunit alpha-7 (Q05941 whole entry): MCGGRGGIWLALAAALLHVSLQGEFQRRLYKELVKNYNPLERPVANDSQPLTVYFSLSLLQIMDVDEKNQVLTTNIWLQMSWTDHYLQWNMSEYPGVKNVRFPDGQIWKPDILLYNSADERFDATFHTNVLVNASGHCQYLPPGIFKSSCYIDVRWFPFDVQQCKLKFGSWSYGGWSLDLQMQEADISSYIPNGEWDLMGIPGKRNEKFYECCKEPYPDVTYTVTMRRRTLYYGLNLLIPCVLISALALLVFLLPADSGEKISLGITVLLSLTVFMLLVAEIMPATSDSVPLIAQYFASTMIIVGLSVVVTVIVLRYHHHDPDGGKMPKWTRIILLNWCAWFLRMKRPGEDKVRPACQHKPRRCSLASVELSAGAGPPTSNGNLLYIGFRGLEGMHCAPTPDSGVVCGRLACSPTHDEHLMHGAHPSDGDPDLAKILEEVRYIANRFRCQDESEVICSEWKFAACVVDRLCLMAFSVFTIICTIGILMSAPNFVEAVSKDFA

[3] = biological target: T1, Adrenergic receptor alpha-2 (Rattus norvegicus, UniProt P22086+P19328+P22909); assay: Displacement of [3H]RS 79948-197 from rat cortex adrenergic alpha-2 receptor
T1 sequence (P22086 whole entry): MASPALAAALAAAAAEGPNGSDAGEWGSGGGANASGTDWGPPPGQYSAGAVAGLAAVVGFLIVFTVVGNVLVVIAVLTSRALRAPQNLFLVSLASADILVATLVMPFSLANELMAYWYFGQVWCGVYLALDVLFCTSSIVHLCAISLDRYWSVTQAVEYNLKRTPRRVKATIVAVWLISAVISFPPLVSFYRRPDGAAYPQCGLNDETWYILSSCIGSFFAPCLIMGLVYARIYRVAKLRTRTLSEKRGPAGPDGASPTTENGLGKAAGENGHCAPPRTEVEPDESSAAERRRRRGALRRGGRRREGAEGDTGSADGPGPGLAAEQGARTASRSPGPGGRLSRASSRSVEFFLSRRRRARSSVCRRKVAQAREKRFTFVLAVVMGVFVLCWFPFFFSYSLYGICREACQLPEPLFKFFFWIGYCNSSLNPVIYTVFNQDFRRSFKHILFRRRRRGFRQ
T1 sequence (P19328 whole entry): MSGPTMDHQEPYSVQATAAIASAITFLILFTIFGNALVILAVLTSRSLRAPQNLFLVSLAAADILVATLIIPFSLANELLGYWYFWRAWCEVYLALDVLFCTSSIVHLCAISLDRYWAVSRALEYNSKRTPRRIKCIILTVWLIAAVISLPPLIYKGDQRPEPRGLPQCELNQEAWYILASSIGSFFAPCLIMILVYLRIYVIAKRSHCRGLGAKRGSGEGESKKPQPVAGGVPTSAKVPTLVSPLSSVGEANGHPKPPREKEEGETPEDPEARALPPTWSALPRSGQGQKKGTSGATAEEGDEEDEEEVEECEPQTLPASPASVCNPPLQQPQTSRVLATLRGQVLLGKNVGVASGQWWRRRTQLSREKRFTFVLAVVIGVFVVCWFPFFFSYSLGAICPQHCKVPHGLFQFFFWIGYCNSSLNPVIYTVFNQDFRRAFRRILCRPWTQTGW
T1 sequence (P22909 whole entry): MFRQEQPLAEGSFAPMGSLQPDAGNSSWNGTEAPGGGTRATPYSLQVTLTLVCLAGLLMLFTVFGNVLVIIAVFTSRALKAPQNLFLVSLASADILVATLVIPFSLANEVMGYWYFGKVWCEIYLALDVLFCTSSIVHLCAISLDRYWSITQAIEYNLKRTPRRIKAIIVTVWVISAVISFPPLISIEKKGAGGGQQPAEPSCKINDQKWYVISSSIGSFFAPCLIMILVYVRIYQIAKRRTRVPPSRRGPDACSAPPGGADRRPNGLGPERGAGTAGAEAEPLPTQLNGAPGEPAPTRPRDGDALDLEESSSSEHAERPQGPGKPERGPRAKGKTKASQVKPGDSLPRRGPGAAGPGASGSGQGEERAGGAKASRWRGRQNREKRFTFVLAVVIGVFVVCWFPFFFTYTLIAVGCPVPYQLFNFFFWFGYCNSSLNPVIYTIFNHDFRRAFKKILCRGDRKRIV

Sequence of Neuronal acetylcholine receptor; alpha4/beta2 (P09483 whole entry): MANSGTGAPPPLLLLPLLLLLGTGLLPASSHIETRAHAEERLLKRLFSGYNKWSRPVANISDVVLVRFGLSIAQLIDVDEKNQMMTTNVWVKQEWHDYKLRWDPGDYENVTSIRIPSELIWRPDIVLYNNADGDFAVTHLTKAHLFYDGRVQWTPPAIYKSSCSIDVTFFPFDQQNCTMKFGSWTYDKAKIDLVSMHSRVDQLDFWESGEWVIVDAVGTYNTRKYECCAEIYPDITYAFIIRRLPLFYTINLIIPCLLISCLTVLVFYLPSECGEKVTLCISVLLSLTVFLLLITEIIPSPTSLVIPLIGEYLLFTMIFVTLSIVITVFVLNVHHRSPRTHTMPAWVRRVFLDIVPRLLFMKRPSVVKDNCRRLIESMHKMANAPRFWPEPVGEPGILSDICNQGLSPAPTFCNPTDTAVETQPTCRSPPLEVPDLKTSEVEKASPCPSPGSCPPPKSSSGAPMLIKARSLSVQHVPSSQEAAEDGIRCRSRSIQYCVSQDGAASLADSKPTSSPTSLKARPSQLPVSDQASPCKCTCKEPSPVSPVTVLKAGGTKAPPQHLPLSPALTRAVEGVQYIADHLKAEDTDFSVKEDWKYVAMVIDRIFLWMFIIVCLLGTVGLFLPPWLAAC
Sequence of Neuronal acetylcholine receptor; alpha4/beta2 (P12390 whole entry): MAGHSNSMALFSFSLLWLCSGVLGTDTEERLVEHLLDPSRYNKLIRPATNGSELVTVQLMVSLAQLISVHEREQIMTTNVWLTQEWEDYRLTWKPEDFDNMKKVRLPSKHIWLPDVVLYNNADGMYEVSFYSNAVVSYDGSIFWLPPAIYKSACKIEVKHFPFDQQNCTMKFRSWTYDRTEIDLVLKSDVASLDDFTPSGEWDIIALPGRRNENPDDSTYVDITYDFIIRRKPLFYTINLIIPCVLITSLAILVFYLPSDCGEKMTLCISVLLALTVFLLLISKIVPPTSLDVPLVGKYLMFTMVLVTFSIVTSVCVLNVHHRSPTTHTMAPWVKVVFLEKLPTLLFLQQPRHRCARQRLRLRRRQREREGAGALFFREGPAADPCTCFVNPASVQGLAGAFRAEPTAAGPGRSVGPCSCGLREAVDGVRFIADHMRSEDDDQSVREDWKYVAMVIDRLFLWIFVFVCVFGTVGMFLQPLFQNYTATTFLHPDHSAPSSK

Compound	pKi [1]	pKi [2]	Ki [3] [µM]
CN1CCC[C@H]1[C@H]1CNC(=O)O1	4.21	3.93	–
CN1CCC[C@@H]1[C@@H]1CNC(=O)O1	4.10	3.47	–
CN1CCC[C@H]1[C@@H]1COc2ccccc2O1.Cl	6.21	4.92	0.77
CN1CCC[C@@H]1[C@H]1COc2ccccc2O1.Cl	5.59	4.35	0.47
